Experimental data taken from PMC11239673, “Structural basis for the bi-specificity of USP25 and USP28 inhibitors” (EMBO Reports, 2024).
Values joined by “and” are separate entries in the source; they are usually repeats but may differ in a detail not shown here. Equal entries are not always repeated. Where two headings read alike, the source gives them in different places.

Key:
Assay type in all cases: biochemical
USP28Δtip L264F = biological target: T1, USP28Δtip L264F (Homo sapiens, UniProt Q96RU2, INS458SGSG/L264F); test: Ub-Rho110 dose–response assay, USP28Δtip L264F; conditions: for IC50: USP28 - L264F
T1 sequence (Q96RU2 with tags, fused parts or gaps L264F/INS458SGSG): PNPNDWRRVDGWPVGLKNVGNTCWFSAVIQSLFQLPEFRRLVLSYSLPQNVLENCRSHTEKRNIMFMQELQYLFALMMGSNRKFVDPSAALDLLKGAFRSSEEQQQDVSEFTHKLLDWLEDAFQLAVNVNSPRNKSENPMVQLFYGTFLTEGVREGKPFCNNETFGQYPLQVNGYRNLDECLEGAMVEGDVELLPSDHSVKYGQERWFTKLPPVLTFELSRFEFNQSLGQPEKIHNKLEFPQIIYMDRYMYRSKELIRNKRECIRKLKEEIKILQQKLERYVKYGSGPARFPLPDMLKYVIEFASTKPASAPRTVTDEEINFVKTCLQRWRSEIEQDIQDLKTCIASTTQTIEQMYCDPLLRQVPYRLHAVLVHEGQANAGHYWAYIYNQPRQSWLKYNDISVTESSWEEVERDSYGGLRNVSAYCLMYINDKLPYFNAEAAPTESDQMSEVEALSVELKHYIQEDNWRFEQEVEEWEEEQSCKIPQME

USP28Δtip H261A = biological target: T2, USP28Δtip H261A (Homo sapiens, UniProt Q96RU2, H261A/INS458SGSG); test: Ub-Rho110 dose–response assay, USP28Δtip H261A; conditions: for IC50: USP28 - H261A
T2 sequence (Q96RU2 with tags, fused parts or gaps H261A/INS458SGSG): T1 sequence (Q96RU2 with tags, fused parts or gaps L264F/INS458SGSG)

USP28Δtip Q315A = biological target: T3, USP28Δtip Q315A (Homo sapiens, UniProt Q96RU2, INS458SGSG/Q315A); test: Ub-Rho110 dose–response assay, USP28Δtip Q315A; conditions: for IC50: USP28 - Q315A
T3 sequence (Q96RU2 with tags, fused parts or gaps Q315A/INS458SGSG): T1 sequence (Q96RU2 with tags, fused parts or gaps L264F/INS458SGSG)

USP28Δtip D265S = biological target: T4, USP28Δtip D265S (Homo sapiens, UniProt Q96RU2, D265S/INS458SGSG); test: Ub-Rho110 dose–response assay, USP28Δtip D265S; conditions: for IC50: USP28 - D265S
T4 sequence (Q96RU2 with tags, fused parts or gaps D265S/INS458SGSG): T1 sequence (Q96RU2 with tags, fused parts or gaps L264F/INS458SGSG)

USP25Δtip Q322A = biological target: T5, USP25Δtip Q322A (Homo sapiens, UniProt Q9UHP3, DEL465-537/INS464GSGSGS/Q322A); test: Ub-Rho110 dose–response assay, USP25Δtip Q322A
T5 construct: 6xHis or thioredoxin-6xHis (N, cleaved yes); made in house; host or cells: E. coli BL21star (DE3)
T5 sequence (Q9UHP3 with tags, fused parts or gaps Q322A/DEL465-477/P478G/DEL482-535/A536G/P537S limits assumed): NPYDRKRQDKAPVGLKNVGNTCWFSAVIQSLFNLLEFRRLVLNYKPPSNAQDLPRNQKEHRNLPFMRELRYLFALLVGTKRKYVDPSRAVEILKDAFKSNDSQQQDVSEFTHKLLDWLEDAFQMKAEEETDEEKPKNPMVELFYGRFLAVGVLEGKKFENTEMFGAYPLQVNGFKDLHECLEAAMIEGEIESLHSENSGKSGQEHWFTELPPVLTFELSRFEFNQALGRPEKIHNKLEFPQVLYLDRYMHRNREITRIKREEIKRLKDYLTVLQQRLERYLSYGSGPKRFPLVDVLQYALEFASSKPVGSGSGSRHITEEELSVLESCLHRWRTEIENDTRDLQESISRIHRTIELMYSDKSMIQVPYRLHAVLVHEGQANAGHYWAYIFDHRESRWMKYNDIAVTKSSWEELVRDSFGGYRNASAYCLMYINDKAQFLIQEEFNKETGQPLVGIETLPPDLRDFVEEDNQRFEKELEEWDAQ

[1] = mean of replicates, read-out: IC50, mean and SD
[2] = single replicates, read-out: IC50 of each replicate curve (unlabelled line above mean and SD)
[3] = read-out: relative inhibition [%] - USP28 - L264F
[4] = read-out: relative inhibition [%] - USP28 - H261A
[5] = read-out: relative inhibition [%] - USP28 - Q315A
[6] = read-out: relative inhibition [%] - USP28 - D265S

Cc1ccc2c(N)c(C(=O)NC3CCc4cc(N5CC6CCC(C5)N6)ccc4C3)sc2n1 (centres unmarked) [FT206]
t-test vs. USP28 WT control - L264F (USP28Δtip L264F): 2.664E-04 | IC50 (USP28Δtip L264F; [1]): 1.27 µM | IC50 (USP28Δtip L264F; [2]): 1.62 µM and 1.31 µM and 1.61 µM and 0.793 µM and 1.12 µM and 1.15 µM | inhibition at 11.11 µM (USP28Δtip L264F; [3]): 90.1% | inhibition at 33.33 µM (USP28Δtip L264F; [3]): 95.6% | inhibition at 100 µM (USP28Δtip L264F; [3]): 97.8% | inhibition at […] (USP28Δtip L264F; [3]): 74.2% and 44.5% | t-test vs. USP28 WT control - H261A (USP28Δtip H261A): 1.437E-02 | IC50 (USP28Δtip H261A; [1]): 1.37 µM | IC50 (USP28Δtip H261A; [2]): 2.48 µM and 1.42 µM and 1.16 µM and 1.02 µM and 0.771 µM | inhibition at 11.11 µM (USP28Δtip H261A; [4]): 80.8% | inhibition at 33.33 µM (USP28Δtip H261A; [4]): 98.5% | inhibition at 100 µM (USP28Δtip H261A; [4]): 107% | inhibition at […] (USP28Δtip H261A; [4]): 74.8% | t-test vs. USP28 WT control - Q315A (USP28Δtip Q315A): 6.868E-03 | IC50 (USP28Δtip Q315A; [1]): 0.36 µM | IC50 (USP28Δtip Q315A; [2]): 0.492 µM and 0.375 µM and 0.444 µM and 0.267 µM and 0.246 µM | inhibition at 11.11 µM (USP28Δtip Q315A; [5]): 96.4% | inhibition at 33.33 µM (USP28Δtip Q315A; [5]): 97.8% | inhibition at 100 µM (USP28Δtip Q315A; [5]): 98.7% | inhibition at […] (USP28Δtip Q315A; [5]): 92.1% and 78.6% and 44.2% | t-test vs. USP28 WT control - D265S (USP28Δtip D265S): 4.502E-03 | IC50 (USP28Δtip D265S; [1]): 0.31 µM | IC50 (USP28Δtip D265S; [2]): 0.288 µM and 0.267 µM and 0.284 µM and 0.266 µM and 0.437 µM | inhibition at 11.11 µM (USP28Δtip D265S; [6]): 99.7% | inhibition at 33.33 µM (USP28Δtip D265S; [6]): 100% | inhibition at 100 µM (USP28Δtip D265S; [6]): 101% | inhibition at […] (USP28Δtip D265S; [6]): 97.8% and 94.4% and 33.5% and 30.9% | inhibition at 100 µM (USP25Δtip Q322A; inhibitor 100.00 µM, single replicates, read-out: relative inhibition [%] - USP25 - Q322A): 94% | t-test vs. USP25 WT control - Q322A (USP25Δtip Q322A; p value, inhibitor IC50 on USP25 Q322A compared with USP25 WT): 8.787E-03 | inhibition at 11.11 µM (USP25Δtip Q322A; read-out: relative inhibition [%] - USP25 - Q322A, inhibitor 11.11 µM, single replicates): 85.2% | inhibition at 33.33 µM (USP25Δtip Q322A; read-out: relative inhibition [%] - USP25 - Q322A, inhibitor 33.33 µM, single replicates): 88.7%
